Patent US9303027B2 (dated 2016)

SMILES: O=C(N[C@H](CN1CCCC1)c1ccccc1)C1(c2cccc(-c3nnn[nH]3)c2)CC1 (stereo in doubt)
- melting point: 137 to 139 °C
